The source of these data is US20070093460A1, “Methods of using selective 11beta-HSD inhibitors to treat gluocorticoid associated states” (priority 2005, published 2007).

The target in one test is T1, 11β-HSD2 (Ovis aries, UniProt P50168).
T1 construct: incubating sheep kidney microsomal fraction (6.5 μg protein) with 50 nM corticosterone; from tissue; host or cells: sheep kidney microsomal fraction
T1 sequence (P50168 1-427): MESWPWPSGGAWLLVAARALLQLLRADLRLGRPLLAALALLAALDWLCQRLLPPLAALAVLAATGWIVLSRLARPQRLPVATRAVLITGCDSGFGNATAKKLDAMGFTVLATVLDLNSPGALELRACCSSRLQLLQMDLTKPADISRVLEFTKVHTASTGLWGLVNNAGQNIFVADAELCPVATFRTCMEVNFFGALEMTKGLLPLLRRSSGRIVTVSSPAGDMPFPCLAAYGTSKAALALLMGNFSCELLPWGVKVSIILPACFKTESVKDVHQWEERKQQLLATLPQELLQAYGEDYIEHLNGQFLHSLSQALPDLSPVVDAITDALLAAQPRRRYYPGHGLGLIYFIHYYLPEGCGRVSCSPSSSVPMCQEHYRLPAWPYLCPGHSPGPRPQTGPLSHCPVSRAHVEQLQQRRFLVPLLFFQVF
Nature of the test: 11β-HSD2 enzyme activity in sheep kidney microsomes. The test is classed as biochemical. From the text: The enzymatic reaction was termninated by addition of methanol and synthesis of 11-dehydro-corticosterone was quantitated by HPLC as described above.

In another test the target is 11β-HSD1 Reductase (Rattus norvegicus, UniProt P16232). Nature of the test: 11β-HSD1 reductase assay in rat Leydig cell homogenates.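 Further: rat Leydig cell homogenate incubated 20 min at 37 °C, pH 7.4, with tritiated 11-dehydro-corticosterone and 3 mM NADPH, product measured by HPLC, inhibition from triplicate dose–response curves.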 Particulars: read-out: Leydig Cell 11β-HSD1 Reductase [S] = 600 nM; rat Leydig cell homogenates, 600 nM 11-dehydro-corticosterone; progesterone and androgen derivatives.
Sequence of 11β-HSD1 Reductase (P16232 whole entry): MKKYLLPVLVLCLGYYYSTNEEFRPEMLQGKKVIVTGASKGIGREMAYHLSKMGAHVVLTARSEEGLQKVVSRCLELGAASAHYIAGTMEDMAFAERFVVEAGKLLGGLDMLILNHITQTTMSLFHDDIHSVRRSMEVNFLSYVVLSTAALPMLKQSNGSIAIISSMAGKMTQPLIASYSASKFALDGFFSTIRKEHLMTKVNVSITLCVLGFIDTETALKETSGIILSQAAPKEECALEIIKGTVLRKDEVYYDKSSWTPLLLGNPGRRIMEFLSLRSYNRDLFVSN
For another test, the target named is 11β-HSD1 Dehydrogenase (Rattus norvegicus, UniProt P16232). Nature of the test: 11β-HSD1 dehydrogenase assay in rat Leydig cell homogenates.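 Further: tritiated corticosterone conversion by 11β-HSD1 dehydrogenase in Leydig homogenates with 3 mM NADP at pH 8.4, 37 °C for 10 min, products resolved by HPLC, inhibition relative to uninhibited enzyme.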 Details: Freshly prepared rat Leydig cell homogenates were chosen since they provide a rich and reliable source of both 11β-HSD1 dehydrogenase and reductase; from tissue; host or cells: rat testicular Leydig cells, homogenate. In kind it is biochemical.
Sequence of 11β-HSD1 Dehydrogenase (P16232 whole entry): as above

The next test relates to normotensive SD rats. Particulars: infused into normotensive SD rats; cited from earlier work.

Entries after “also recorded” stand apart in the source; their conditions may differ. Where only a bound is given, the exact number is not on record here.

Protocol for 11β-HSD1 Dehydrogenase: Each enzyme reaction (described below) was stopped by adding 750 μL MeOH. After centrifugation, an aliquot of supernatant was analyzed by HPLC using a DuPont Zorbax C8 column.
11β-HSD1 dehydrogenase was assayed by incubating homogenates (13,000 cells equivalent) with 600 nM [^3H]-B (0.5 μCi) in the presence of 3 mM NADP, 50 mM Tris-HCl; pH 8.4 at 37° C. for 10 minutes in a total volume of 250 μL. 11β-HSD1 reductase was assayed by incubating homogenates (52,000 cells equivalent) with 600 nM [^3H]-11-dehydro-corticosterone in presence of 3 mM NADPH, 50 mM Tris-HCl; pH 7.4 at 37° C. for 20 minutes in a total volume of 250 μL.
Each concentration was tested in triplicate and the dose response curve, showing percentage inhibition versus log concentration of steroid was plotted. The data fitted a log-linear straight line.

With `CC(=O)[C@H]1CC[C@H]2[C@@H]3CC[C@H]4C[C@H](O)CC[C@]4(C)[C@H]3[C@@H](O)C[C@]12C` [11β-OH-allopregnanolone, 5α-Pregnan-3α,11β-diol-2O-one], the IC50 was 120 nM on 11β-HSD2 (sheep kidney microsomes, corticosterone substrate, progesterone and androgen derivatives, read-out: Sheep kidney 11β-HSD2 [S] = 50 nM); greater than 100000 nM at 11β-HSD1 Reductase; 3000 nM at 11β-HSD1 Dehydrogenase (rat Leydig cell homogenates, 600 nM corticosterone, progesterone and androgen derivatives, read-out: Leydig Cell 11β-HSDl Dehydrogenase [S] = 600 nM). Further, the “inhibitors of 11β-HSD2 (summary in words)” value at 11β-HSD2 (summary of the screening) is given as “potent inhibitors; also recorded: high potency”. For the same compound, the “inhibitors of 11β-HSD1 dehydrogenase (summary in words)” value against 11β-HSD1 Dehydrogenase (summary of the screening) is recorded as “potent inhibitors; also recorded: high potency”. Also, in the test with normotensive SD rats, the blood pressure result was “increased BP”.
